Source: US6962931B2, “Self-emulsifying formulations of cholesteryl ester transfer protein inhibitors” (Pfizer Inc., priority 2001, dated 2005)
≈ marks a conversion by molar mass, not a printed value. Read-outs that look alike come from different tables or passages of the source.

Test: Microsolubility estimate by repeated addition of vehicle
Format: physicochemical
Conditions: thermodynamic from solid, read-out: Microsolubility
Experimental: (§1) For CETP inhibitors where quantities were limited, an estimate of solubility was obtained by addition of vehicle to a known quantity of the compound and mixing in an ultrasonicator bath for 90 minutes, followed by overnight equilibration at ambient temperature. Addition of vehicle was repeated until a solution was achieved.
as §1, with “limited or the samples were amorphous solids,” for “limited,”, “achieved. From the total volume of vehicle added to solubilize the CETP inhibitor compound, the solubility value, or so-called microsolubility, was calculated by the equation: Weight of sample (mgA)/vehicle volume (mL)=Microsolubility (mgA/mL)” for “achieved.”

[1] = Corn, Safflower, Soybean oils, oil or lipid
[2] = Crodamol GTCC/Capmul MCM/Polysorbate 80 (40/40/20), oil or lipid
[3] = PEG 400, organic solvent or mixture
[4] = Cremophor EL, organic solvent or mixture

Row | Compound | Solubility (Capmul MCM, oil or lipid) [mg/mL] | Solubility (Corn oil/Labrafil (80/20), oil or lipid) [mg/mL] | Solubility (Corn oil/Polysorbate 80 (80/20), oil or lipid) [mg/mL] | Solubility [1] [mg/mL] | Solubility (Crodamol GTCC, oil or lipid) [mg/mL] | Solubility [2] [mg/mL] | Solubility (Olive oil, oil or lipid) [mg/mL] | Solubility [3] [mg/mL] | Solubility (Peanut oil, oil or lipid) [mg/mL] | Solubility (Sesame oil, oil or lipid) [mg/mL] | Solubility (Miglyol 812, oil or lipid) [mg/mL] | Solubility (Safflower oil, oil or lipid) [mg/mL] | Solubility [4] [mg/mL]
1 | CCOC(=O)N1c2cc(C(F)(F)F)ccc2[C@@H](N(Cc2cc(C(F)(F)F)cc(C(F)(F)F)c2)C(=O)OC)C[C@H]1C [Compound I, [2R,4S] 4-[(3,5-Bis-trifluoromethyl-benzyl)-methoxycarbonyl-amino]-2-methyl-7-trifluoromethyl-3,4-dihydro-2H-quinoline-1-carboxylic acid ethyl ester] | > 20 | < 20 | > 20 | < 20 | > 20 | > 20 | < 20 | < 20 | < 20 | < 20 | – | – | –
2 | CCOC(=O)N1c2cc3c(cc2[C@H](N(Cc2cc(C(F)(F)F)cc(C(F)(F)F)c2)C(=O)OC)C[C@@H]1C)CCC3 [Compound J, [2S,4R] 4-[(3,5-Bis-trifluoromethyl-benzyl)-methoxycarbonyl-amino]-2-methyl-2,3,4,6,7,8-hexahydro-cyclopenta[g]quinoline-1-carboxylic acid ethyl ester] | > 100 | – | – | > 100 | > 100 | > 100 | > 100 | 50 to 100 (≈ 89.5 to 179 mM) | > 100 | > 100 | – | – | –
3 | CCCOC(=O)N1c2ccc(C(F)(F)F)cc2[C@@H](N(Cc2cc(C(F)(F)F)cc(C(F)(F)F)c2)C(=O)OC)C[C@H]1CC [Compound F, [2R,4S] 4-[(3,5-Bis-trifluoromethyl-benzyl)-methoxycarbonyl-amino]-2-ethyl-6-trifluoromethyl-3,4-dihydro-2H-quinoline-1-carboxylic acid propyl ester] | – | – | – | – | – | – | 303 (≈ 493 mM) | – | – | – | < 100 | – | –
4 | CCOC(=O)N1c2ccc(C(F)(F)F)cc2[C@@H](N(C=O)Cc2cc(C(F)(F)F)cc(C(F)(F)F)c2)C[C@H]1CC [Compound P, [2R,4S] 4-[(3,5-Bis-trifluoromethyl-benzyl)-formyl-amino]-2-ethyl-6-trifluoromethyl-3,4-dihydro-2H-quinoline-1-carboxylic acid ethyl ester] | > 300 | – | – | – | – | – | > 300 | – | – | – | > 300 | < 300 | –
5 | COC(=O)N(Cc1cc(C(F)(F)F)cc(C(F)(F)F)c1)[C@H]1CC(C2CC2)N(C(=O)OC(C)C)c2ccc(C(F)(F)F)cc21 (stereo in doubt) [Compound G, [2R,4S] 4-[(3,5-Bis-trifluoromethyl-benzyl)-methoxycarbonyl-amino]-2-cyclopropyl-6-trifluoromethyl-3,4-dihydro-2H-quinoline-1-carboxylic acid isopropyl ester] | – | – | – | – | – | > 300 | > 300 | – | – | > 300 | – | – | > 300
6 | CCCOC(=O)N1c2ccc(C(F)(F)F)cc2[C@@H](N(C=O)Cc2cc(C(F)(F)F)cc(C(F)(F)F)c2)CC1C1CC1 (stereo in doubt) [Compound N, [2R,4S] 4-[(3,5-Bis-trifluoromethyl-benzyl)-formyl-amino]-2-cyclopropyl-6-trifluoromethyl-3,4-dihydro-2H-quinoline-1-carboxylic acid propyl ester] | > 300 | – | – | – | – | – | > 300 | – | – | – | > 300 | > 300 | –
7 | CCOC(=O)N1c2ccc(C(F)(F)F)cc2[C@@H](N(C=O)Cc2cc(C(F)(F)F)cc(C(F)(F)F)c2)C[C@H]1C [Compound Q, [2R,4S] 4-[(3,5-Bis-trifluoromethyl-benzyl)-formyl-amino]-2-methyl-6-trifluoromethyl-3,4-dihydro-2H-quinoline-1-carboxylic acid ethyl ester] | > 300 | – | – | – | – | – | < 300 | – | – | – | > 300 | < 300 | –
8 | CCOC(=O)N1c2ccc(C(F)(F)F)cc2[C@@H](N(Cc2cc(C(F)(F)F)cc(C(F)(F)F)c2)C(=O)OC)C[C@H]1C [Compound L, [2R,4S] 4-[(3,5-Bis-trifluoromethyl-benzyl)-methoxycarbonyl-amino]-2-methyl-6-trifluoromethyl-3,4-dihydro-2H-quinoline-1-carboxylic acid ethyl ester] | > 300 | – | – | – | – | – | < 300 | – | – | – | > 300 | > 300 | –
9 | COC(=O)N(Cc1cc(C(F)(F)F)cc(C(F)(F)F)c1)[C@@H]1CC(C2CC2)N(C(=O)OC(C)C)c2ccc(C(F)(F)F)cc21 (stereo in doubt) [Compound H, [2S,4R] 4-[(3,5-Bis-trifluoromethyl-benzyl)-methoxycarbonyl-amino]-2-cyclopropyl-6-trifluoromethyl-3,4-dihydro-2H-quinoline-1-carboxylic acid isopropyl ester] | > 300 | – | – | > 300 | > 300 | – | > 300 | < 160 | – | – | – | – | < 160
10 | CCOC(=O)N1c2ccc(C(F)(F)F)cc2[C@@H](N(Cc2cc(C(F)(F)F)cc(C(F)(F)F)c2)C(C)=O)C[C@H]1C [Compound O, [2R,4S] 4-[Acetyl-(3,5-bis-trifluoromethyl-benzyl)-amino]-2-methyl-6-trifluoromethyl-3,4-dihydro-2H-quinoline-1-carboxylic acid ethyl ester] | > 300 | – | – | – | – | – | < 300 | – | – | – | > 300 | < 300 | –
11 | CCCOC(=O)N1c2ccc(C(F)(F)F)cc2[C@@H](N(Cc2cc(C(F)(F)F)cc(C(F)(F)F)c2)C(C)=O)CC1C1CC1 (stereo in doubt) [Compound M, [2R,4S] 4-[Acetyl-(3,5-bis-trifluoromethyl-benzyl)-amino]-2-cyclopropyl-6-trifluoromethyl-3,4-dihydro-2H-quinoline-1-carboxylic acid propyl ester] | > 300 | – | – | – | – | – | < 300 | – | – | – | > 300 | < 300 | –
